# What was measured:
# primary neurons = test: Tau-associated neuronal damage in primary neurons cultured alone (AAV-TauP301S, MAP2/NeuN immunostaining); type: cell-based, mouse; details: 10 μM; AAV human P301S tau
# Method: Primary neurons were immunostained for MAP2 or NeuN following mock treatment or transduction with AAV encoding human P301S mutant tau under the synapsin-1 promoter. Neurons were cultured without (FIGS. 9A-9B) or with (FIGS. 9C-9D) primary mouse microglia. S3QEL2 (S3, 10 μM). n=4 per condition.
# To begin dissecting the mechanisms by which S3QEL2 affects neural cell function and disease-linked processes, studies in primary cultures were conducted. Isolated mouse-derived neurons were transduced with adeno-associated viral vectors (AAVs) encoding wild-type or the P301S mutant form of the human tau protein (FIG. 8A). […] However, S3QEL reduced neuronal damage in the presence of astrocytes (approx. 30% astrocytes, FIG. 10A). Tau can also promote aberrant neuronal activity and hypersynchrony. S3QEL reduced aberrant neuronal firing in tau-transduced neurons co-cultured with astrocytes (FIGS. 10B-10C).
# [1] = tested on: astrocytic H2O2 production; test: Released H2O2 from primary astrocytes (Amplex UltraRed); type: cell-based, mice; details: S3QEL2 20 μM, S3QEL1.2 1 μM, approximately 24 h
# Method: (FIG. 17A) Astrocytes isolated from P2-P3 mice were treated with A1 cocktail consisting of 30 ng/ml TNF-α, 3 ng/ml IL-1α, and 400 ng/ml Clq, and S3QEL1.2 (3 μM) or vehicle for approximately 6 h and analyzed by Western blotting. Phospho-STAT3 levels were normalized to total STAT3 per sample. n=6 wells per condition. **p<0.01, ***p<0.001, one-way ANOVA with Dunnett's multiple comparisons test. (FIG. 17B) Astrocytes isolated from P2-P3 mice were treated with A1 cocktail consisting of 30 ng/ml TNF-α, 3 ng/ml IL-1α, and 400 ng/ml Clq for 24 h, and analyzed for levels of released H2O2 using Amplex UltraRed, a fluorogenic substrate that is a highly sensitive indicator of H2O2, in the presence of horseradish peroxidase and superoxide dismutase. n=6 wells per condition. *p=0.01, Student's t test. (FIG. 17C) Astrocytes isolated from P2-P3 mice were treated with vehicle or 3 ng/ml IL-1α and either S3QEL2 (20 μM), S3QEL1.2 (1 μM), or vehicle for approximately 24 h, and analyzed for levels of released H2O2 using Amplex UltraRed. n=6 wells per condition. *p<0.05, **p<0.01, ***p<0.001, two-way ANOVA with Bonferroni's multiple comparisons test. […]
# Nrf2 = test: Hippocampal RNA levels of Nrf2 in hTauP301S mice; type: in vivo; details: 5 mg/kg/day, six weeks
# [2] = Drug tolerance during chronic oral administration (body weight, behavior); type: in vivo, mice
# Method: (FIGS. 1C-D) Body weights of male nontransgenic (NTG) or hTauP301S mice treated with S3QEL2 (FIG. 1C) (S3, 5 mg/kg/day, PO in almond butter), S1QEL1.1 (FIG. 1D) (10 mg/kg/day, PO in almond butter), or vehicle. (FIG. 1E) Levels of S3QEL2 in the mouse brain following almond butter (AB) or chow administration at indicated doses for 21 days. (n=15 mice per dose). n=3-15 wild-type mice per condition. (FIG. 1F) Body weight of 4-5-month-old wild-type male mice treated with formulated chow containing S3QEL2 at indicated doses and durations (n=15 mice per dose).
# A series of pharmacokinetic and drug tolerance experiments with S3QEL2 in adult wild-type and transgenic hTauP301S mice was first performed. Different administration routes and drug formulations were tested. […] Chow that was formulated to deliver 0, 5, 15, or 30 mg/kg/day of S3QEL2 was also tested.
# T98G glioblastoma cells = test: Glioblastoma cell proliferation, CellTiter-Glo luciferase assay, T98G; type: cell-based, human; details: 0-50 μM, 72 and 96 h
# Method: Relative cell density was measured using the CellTiter-Glo luciferase assay. n=3 wells per condition. *p<0.05, **p<0.01, ***p<0.001 vs. 0 μM, one-way ANOVA with Dunnett's multiple comparisons test.
# The effect of S3QELs on proliferation of glial tumor cells that have different oncogenic mutations was assessed. In particular, proliferation rates were assessed in three different human immortalized glioblastoma cells lines (A-172, T98G, and U-87 MG). A-172 and U-87 lines have mutations in PTEN, a phosphatase that indirectly regulates PI3K activities, whereas T98G cell line has a mutation in p53, a well-known tumor suppressor gene. STAT3 can affect PI3K signaling and p53 transcription and could thereby promote glioblastoma cell proliferation. Whether S3QELs reduce glioblastoma cell proliferation and aberrant intracellular signaling was tested.
# Briefly, two complementary methods were used to assess cell proliferation, including the CellTiter-Glo assay and DAPI staining of cell nuclei. The effects of S3QEL2 treatment on A-172, T98G, and U-87 MG cells were measured at different drug concentrations (0, 6, 20, 30, 40, or 50 μM) and time-points after treatment (72 or 96 hours). S3QEL2 inhibits proliferation of A-172 and T98G glioblastoma cells in a highly dose-dependent manner and these effects are similar at different time-points (FIG. 15A-B).
smiles,measurement,setting,value
CCCN(CCC)c1ncnc2c1cnn2-c1ccc(C)c(C)c1 [S3QEL2],"Tau-associated neuronal damage, neurons cultured alone",primary neurons,did not affect tau-associated neuronal damage
same,Increases in astrocytic H2O2 levels induced by IL-1α,[1]; IL-1α 3 ng/ml,suppressed the increases
same,Baseline astrocytic H2O2 levels,[1]; vehicle,minimal effects
same,Hippocampal Nrf2 RNA levels,Nrf2,reduced
same,Adverse health effects such as weight loss or altered behavior,"[2]; PO in almond butter, S3QEL2 5 mg/kg/day, S1QEL1.1 10 mg/kg/day, NTG or hTauP301S mice",did not result in obvious adverse health effects
same,Tolerability of chow administration,"[2]; chow 5, 15 or 30 mg/kg/day, high doses and long treatment durations, adult wild-type mice",tolerated well
same,"Cell proliferation (relative cell density, CellTiter-Glo)",T98G glioblastoma cells,dose-dependently inhibited cell proliferation

# Reference: US20240058344A1, “METHODS OF TREATING NEURODEGENERATIVE DISORDERS AND STAT3-LINKED CANCERS USING SUPPRESSORS OF ELECTRON LEAK” (Cornell University, priority 2020, published 2024)
